Laboratory results as given in article PMC12677653, “Inhibition of Tumor Lipogenesis and Growth by Peptide‐Based Targeting of SREBP Activation” (Advanced Science, 2025).

Test system: Huh7 cells
Test: Triglyceride (TG) detection assay, Huh7
Format: cell-based, human
Conditions: peptide 25 µM, IGF1 100 ng/mL 24 h, n = 3
Description: Figure 1 The Insig1/2 loop 1 peptide binds to S90‐phosphorylated PCK1 and blocks PCK1‐mediated SREBP activation and tumor cell proliferation. Immunoblotting analyses were performed using the indicated antibodies; representative results from three independent experiments are shown (IP, immunoprecipitation; WB, western blot). a) Huh7 cells expressing various Insig1 (top) or Insig2 (bottom) truncation mutants were treated with or without IGF1 (100 ng mL^−1) for 1 h. b,c) Biolayer interferometry assays (Sartorius Octet) were employed to measure the binding affinity of Insig1/2 loop 1 peptide to GST‐PCK1 or GST‐PCK1 pS90 proteins. […] Statistical significance was determined by one‐way analysis of variance (ANOVA). g) Following pretreatment with Insig1/2 loop 1 peptide (15 µM) and IGF1 stimulation (100 ng mL^−1, 8 h), Huh7 cells were subjected to immunofluorescence analysis (scale bar: 10 µm). h) Quantitative PCR analysis of SREBP1 target gene GPAM in Huh7 cells pretreated with Insig1/2 loop 1 peptide (15 µM) and stimulated with IGF1 (100 ng mL^−1) for 10 h. […] Statistical significance was determined by one‐way analysis of variance (ANOVA). i) Quantitative PCR analysis of SREBP1 target gene FASN in Huh7 cells pretreated with Insig1/2 loop 1 peptide (15 µM) and stimulated with IGF1 (100 ng mL^−1) for 10 h. […]

**Q.** Which “IGF1-induced increase in triglycerides (TGs)” value does the source give for “RKKRRQRRRLYPCIDSHLGEPHKFKRE [Insig1/2 loop 1 peptide]” here?
**A.** reduced
